Measurements reported in paper PMC10382351, “In vivo evaluation of a novel ^18F-labeled PET radioligand for translocator protein 18 kDa (TSPO) in monkey brain” (European Journal of Nuclear Medicine and Molecular Imaging, 2023).

Legend:
TSPO [1] = details: cited from earlier work; for BPND of whole brain: monkey brain
TSPO [2] = target: TSPO; set-up: method as in PMID 25123416, PMID 34756026; details: human brain homogenates; against [^3H]PK11195; cited from earlier work
[3] = system: 18 kDa translocator protein (TSPO); assay: PET imaging of [^18F]SF51 in rhesus monkey brain with kinetic analysis (2TCM, Logan plot, Lassen plot); type: in vivo; details: radioligand [^18F]SF51
Procedure: Electrocardiogram, body temperature, heart rate, and respiratory rate measures were monitored throughout the scan.
Brain PET imaging was performed using a microPET Focus 220 camera (Siemens Medical Solution; Knoxville, TN). […] For baseline experiments, 20 mL of a vehicle containing 20% (2-hydroxypropyl)-β-cyclodextrin and two equivalents of HCl were injected intravenously 10 min before radioligand administration. For the blocked experiment, PK11195 was dissolved in vehicle and then injected intravenously (5 mg/kg) 10 min before radioligand injection for all three monkeys. One of the three monkeys underwent an additional blocked scan with 5 mg/kg of PBR28, performed using a MultiScan™ LFER 150 PET/CT (Mediso USA, LLC; Arlington, VA). The interval between baseline and blocked imaging sessions was at least three weeks in order to allow the monkey to recover from arterial blood sampling. Focus 220 PET images were histogrammed into 30 time frames (6 × 30, 3 × 60, 2 × 120, 4 × 300, and 15 × 600 s) and reconstructed using Fourier rebinning plus a two-dimensional filtered back-projection with scatter and attenuation correction. MultiScan LFER PET images were reconstructed with 3D-OSEM with two iterations and nine subsets and were corrected for scatter and attenuation.
PET images were co-registered to a standardized monkey MRI template using PMOD software (PMOD version 4.1, PMOD Technologies Ltd.; Zurich, Switzerland). Thirty-three predefined regions of interest (ROIs) from a monkey brain template were applied to the co-registered PET images to obtain regional time-activity curves (Supplementary Table S2). Brain uptake was expressed as standardized uptake value (SUV), which normalizes for injected radioactivity and body weight. Using the brain time-activity curves and the radiometabolite-corrected arterial input function, the total VT was derived from a two-tissue compartment model (2TCM). Receptor occupancy by PK11195 and nondisplaceable distribution volume (VND/fP) of [^18F]SF51 were determined by an axes-transformed Lassen plot, where the y-axis reports the difference in VT between the baseline and the blocked scans, corrected by the respective fp values, and the x-axis reports the values at baseline (VTbase/fPbase).

CC[C@@H](C)N([11CH3])C(=O)c1nc(-c2cccc(F)c2)c2ccccc2n1 [[^11C]SF51]
BPND of whole brain (TSPO [1]): 8.1

CC[C@@H](C)N(C)C(=O)c1nc(-c2ccccc2Cl)c2ccccc2n1 [ER176]
Ki ratio between LAB and HAB (TSPO [2]): 1.28
BPND of whole brain (TSPO [1]): 8.9

CCC(C)N(C)C(=O)c1cc2ccccc2c(-c2ccccc2Cl)n1 (stereo not drawn) [PK11195, reference compound]
Receptor occupancy (Lassen plot) ([3]; PK11195 5 mg/kg i.v., three rhesus monkeys): 102 ± 3%
Slope of Lassen plot (= occupancy) ([3]; PK11195 5 mg/kg, mean ± SD, n = 3): 1.02 ± 0.03

CC[C@@H](C)N([11CH3])C(=O)c1nc(-c2ccccc2Cl)c2ccccc2n1 [[^11C]ER176]
VT/fP in the whole brain (TSPO [1]; monkey): 186 mL·cm^−3
